Assay results as given in paper PMC9919735, “Cupressus arizonica Greene: Phytochemical Profile and Cosmeceutical and Dermatological Properties of Its Leaf Extracts” (Molecules, 2023).

How the values were obtained:
[1] = molecular target: T1, Collagenase enzyme, from Clostridium histolyticum (ChC); assay: FALGPA hydrolysis, absorbance […] nm; type: biochemical, Hathewaya histolytica; conditions: Tricine buffer 50 mM, 400 mM NaCl, 10 mM CaCl2, pH 7.5, 15 min preincubation; positive control
T1 construct: gene colG; native enzyme preparation, ColG / ColH not distinguished

hyaluronidase enzyme = assay: hyaluronic acid degradation, DMAB colorimetric, absorbance […] nm; type: biochemical; conditions: hyaluronic acid 1 mg/mL in 0.1 M acetate pH 3.5, CaCl2; positive control

Row | Parameters IC50 (μg/mL) / Hyaluronidase (hyaluronidase enzyme) [µg/mL] | SMILES | Parameters IC50 (μg/mL) / Collagenase [1] [µg/mL]
1 | – | O=c1c(O)c(-c2ccc(O)c(O)c2)oc2cc(O)cc(O)c12 [Quercetin] | 24.83 ± 1.8
2 | 14.46 ± 0.6 | O=c1cc(CO)occ1O [Kojic acid] | –
